Source: ChEMBL document CHEMBL1138891, “3-(4-Piperidinyl)indoles and 3-(4-piperidinyl)pyrrolo-[2,3-b]pyridines as ligands for the ORL-1 receptor” (Bioorg Med Chem Lett, 2006)

Legend:
[1] = Stability in human liver microsome after 60 mins; type: ADME; conditions: liver microsomes, read-out: Stability
[2] = Half life in human liver microsomes; type: ADME, Microsome

c1cc2c3c(cccc3c1)C(N1CCC(c3c[nH]c4ncccc34)CC1)C2 (configuration not stated)
remaining at 1 h [1]: 14%
half-life [2]: 15 min
